Source: patent publication US20240294697A1, “AMPHIPHILIC OLIGOMERS AND SELF-ASSEMBLING HYDROGELS FORMED THEREFROM” (THE GOVERNING COUNCIL OF THE UNIVERSITY OF TORONTO, priority 2021, published 2024)

System: primary chondrocytes
Conditions: H2O2 between 25 and 100 μM

concentrations resulting in metabolically active cells: below 50 μM
SMILES: OO [H2O2, hydrogen peroxide]
concentrations evidencing cell toxicity: above 50 μM
